Here are results for 11 molecules from ChEMBL document CHEMBL1201862, “PubChem BioAssay data set” (2004).

Counter-ions that a name gives are not always drawn. Activity calls are given as the source filed them.

Assay [1] in a line: A Cell-Based Confirmatory Screen for Compounds that Inhibit VEEV, TC-83 (5). The format is functional.
Assay [2] in a line: A Cell-Based Confirmatory Screen for Compounds that Inhibit VEEV TC-83 (4). The format is functional.
Assay [3] in a line: A Cell-Based Confirmatory Screen for Compounds that Inhibit VEEV, TC-83 (8). The format is functional.
The target in a further assay is Vasopressin V2 receptor (Homo sapiens, UniProt P30518). In words: Late-stage results from the probe development effort to identify antagonists of arginine vasopressin receptor 1a (AVPR1a): fluorescence-based cell-based dose response AVPR2 inhibition counterscreen assay. The format is functional.
For a further assay, the target named is Vasopressin V1b receptor (Homo sapiens, UniProt P47901). In words: Late-stage results from the probe development effort to identify antagonists of arginine vasopressin receptor 1a (AVPR1a): fluorescence-based cell-based dose response AVPR1b inhibition counterscreen assay. The format is functional.
Assay [4] is described as follows: Late-stage results from the probe development effort to identify antagonists of arginine vasopressin receptor 1a (AVPR1a): fluorescence-based cell-based dose response AVPR1a inhibition assay. In kind it is functional.
The nature of assay [5]: Late-stage results from the probe development effort to identify antagonists of arginine vasopressin receptor 1a (AVPR1a): fluorescence-based cell-based dose response OXTR inhibition counterscreen assay. The format is functional.
The nature of assay [6]: T. cruzi intracellular amastigote growth inhibition, dose response, imaging, CA-I/72 strain, bovine embryo skeletal muscle, dry powder (AID 651885). In kind it is functional, cell-based.
Assay [7] can be described thus: inhibitors of non-replicating M. tuberculosis, dose response, luciferase, dry powder (AID 651620). In kind it is functional. Particulars: Mycobacterium tuberculosis.
The nature of assay [8]: cytotoxicity in HepG2 cells, dose response, cytotoxicity control, cell-based, plate reader, dry powder (AID 651947). The format is functional.
Assay [9] in a line: growth inhibition of replicating M. tuberculosis, dose response, counter-screen, dry powder, IC90 (AID 651617). The format is functional. The note with it: Mycobacterium tuberculosis.
Assay [10] is described as follows: inhibitors of non-replicating M. tuberculosis, dose response, luciferase, dry powder (AID 651619). The note with it: Mycobacterium tuberculosis. The format is functional.
The target of assay [11] is T1, Oxysterols receptor LXR-beta (Homo sapiens, UniProt P55055).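 Note: agonist activity at LXR measured by a cell-based luminescence readout across a dose range, run as a counterscreen for daf-12 agonists; HEK293 cells with Gal4-LXR fusion and GAL4-driven luciferase reporter; potency for activation of Gal4-LXR reporter so compounds are agonists.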
T1 sequence (P55055 whole entry): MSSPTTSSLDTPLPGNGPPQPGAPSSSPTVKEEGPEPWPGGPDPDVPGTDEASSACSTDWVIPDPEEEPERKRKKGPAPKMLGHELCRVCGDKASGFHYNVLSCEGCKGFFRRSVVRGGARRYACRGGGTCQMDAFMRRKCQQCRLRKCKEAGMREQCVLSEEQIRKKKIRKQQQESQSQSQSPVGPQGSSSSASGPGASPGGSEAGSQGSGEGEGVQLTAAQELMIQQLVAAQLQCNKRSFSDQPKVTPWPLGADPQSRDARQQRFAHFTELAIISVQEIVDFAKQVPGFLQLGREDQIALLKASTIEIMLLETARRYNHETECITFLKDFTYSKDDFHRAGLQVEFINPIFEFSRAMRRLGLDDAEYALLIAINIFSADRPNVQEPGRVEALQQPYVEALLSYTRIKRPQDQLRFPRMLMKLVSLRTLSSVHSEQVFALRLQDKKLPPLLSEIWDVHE
The format is functional, cell-based.

A short description of assay [12]: HEK293T cytotoxicity, dose response, cytotoxicity control for miR-122 modulator project, cell-based, activator set, cherry-pick (AID 720690).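 Note: HEK293T human cells scored for general mammalian cytotoxicity.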 The format is functional.
Assay [13] can be described thus: miR-122 activators in hepatoma reporter cells, dose response, cell-based, Huh7 psiCHECK-miR122, Renilla luciferase, cherry-picked (AID 651956).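 Note: huh7 hepatoma cells stably carrying a psiCHECK-2 miR-122 sensor plasmid; renilla luciferase signal reporting endogenous miR-122 activity after 48 h compound exposure.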 The format is functional.
Assay [14] is described as follows: HepG2 cell cytotoxicity, dose response, cytotoxicity control, cherry-picked samples (AID 1159577). In kind it is functional, cell-based.
A short description of assay [15]: P. falciparum Dd2 growth inhibitors, dose response, SYBR Green, cherry-picked samples (AID 1159567). The format is functional, cell-based.
Assay [16] is described as follows: P. falciparum Dd2 growth inhibitors, dose response, SYBR Green, dry powder samples, set 9 (AID 1159568). The format is functional, cell-based.
The nature of assay [17]: P. falciparum Dd2 growth inhibitors, dose response, SYBR Green, dry powder samples, set 4 (AID 1159572). In kind it is functional, cell-based.
Assay [18] can be described thus: P. falciparum Dd2 blood-stage growth inhibition, dose response, SYBR Green fluorescence, erythrocytes, dry powder, set 2 (AID 1159574). In kind it is functional, cell-based.
Assay [19] is described as follows: Dose-response inhibition of insulin secretion in a rat insulinoma line at 5 mM glucose (AID 1117331). In kind it is functional, cell-based. Particulars: INS-1E.
The test system of a further assay is HeLa. Put plainly: HeLa cell cytotoxicity, dose response, cytotoxicity control, ATP luminescence, cherry-pick samples (AID 687004). The note with it: Homo sapiens. The format is functional, cell-based.

Sequence of Vasopressin V1b receptor (P47901 whole entry): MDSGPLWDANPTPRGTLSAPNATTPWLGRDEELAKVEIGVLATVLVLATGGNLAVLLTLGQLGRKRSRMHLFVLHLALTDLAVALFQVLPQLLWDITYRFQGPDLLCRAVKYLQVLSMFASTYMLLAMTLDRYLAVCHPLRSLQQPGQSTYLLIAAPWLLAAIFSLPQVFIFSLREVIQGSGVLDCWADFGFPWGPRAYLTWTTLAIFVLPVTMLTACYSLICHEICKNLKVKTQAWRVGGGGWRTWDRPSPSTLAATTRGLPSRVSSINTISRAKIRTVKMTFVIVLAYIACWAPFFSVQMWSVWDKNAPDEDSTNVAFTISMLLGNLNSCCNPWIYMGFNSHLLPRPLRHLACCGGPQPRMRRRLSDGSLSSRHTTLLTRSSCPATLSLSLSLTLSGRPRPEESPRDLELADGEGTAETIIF
Sequence of Vasopressin V2 receptor (P30518 whole entry): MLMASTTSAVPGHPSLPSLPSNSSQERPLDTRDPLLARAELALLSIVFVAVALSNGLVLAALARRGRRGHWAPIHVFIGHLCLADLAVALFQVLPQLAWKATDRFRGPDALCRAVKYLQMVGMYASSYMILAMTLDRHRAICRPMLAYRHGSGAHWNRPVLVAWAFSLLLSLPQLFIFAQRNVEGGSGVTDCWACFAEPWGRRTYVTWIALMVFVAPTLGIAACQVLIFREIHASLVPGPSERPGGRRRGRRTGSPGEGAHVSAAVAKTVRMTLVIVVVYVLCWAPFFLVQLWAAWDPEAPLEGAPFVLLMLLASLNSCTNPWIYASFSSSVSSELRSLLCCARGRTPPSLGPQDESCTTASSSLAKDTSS

Consider `CCN1CCN(Cc2nc3ccc([N+](=O)[O-])cc3c(=O)n2-c2ccccc2)CC1`, for which the values for the IC50 in [1], in assay [2] and in assay [3] were 0.27 µM (active), 0.01 µM (active) and 0.32 µM (active), respectively.
In the case of `Cc1ccccc1N1CCN(c2nc3ccccc3n2CC2CC2)CC1`, the IC50 at Vasopressin V2 receptor is 19.4 µM (inactive); at Vasopressin V1b receptor, 15.5 µM (inactive); in assay [4], 7.54 µM (active); in assay [5], 19.4 µM (inactive).
Take `C[C@H]1CN([C@@H](C)CO)C(=O)c2cccc(NC(=O)c3ccncc3)c2O[C@@H]1CN(C)Cc1ccc(C(=O)O)cc1`: the IC50 in assay [6] is > 20 µM (inactive).
With `c1ccc(Cn2cc(CSc3nnc(C4CCCC4)o3)nn2)cc1`, the IC90 was 4 µM (active) in assay [7], 250 µM (active) in assay [9] and 4 µM (active) in assay [10]. Moreover, the AC50 in assay [8] was > 52 µM (inactive).
For the molecule `Cc1ccc(/C=N/NC(=O)c2ccccn2)s1`, in [11], the EC50 is > 67.6 µM (inactive).
Consider `CC(=O)/N=c1\scc(-c2ccccc2)n1-c1cccc(O)c1`, for which the AC50 in assay [12] was 44.8 µM (active); in [13], 25.1 µM (active).
Consider `C/C=C/c1ccc([C@@H]2[C@@H]3CN(Cc4cccc(F)c4)C[C@H]2N3)cc1`, for which the AC50 in [14] was 9.58 µM (active); in assay [15], 4.24 µM (active).
On to `O=C(Nc1ccccc1F)N1CCCCN2[C@H](C1)[C@@H](c1ccc(/C=C/c3ccccc3)cc1)[C@@H]2CO`, for which the AC50 in assay [16] was 7.14 µM (active).
Regarding `COc1ccc2c3c([nH]c2c1)[C@H](CO)N(C(C)=O)CC31CCN(C(=O)Nc2ccc(F)cc2)CC1`, the AC50 in assay [17] was 0.834 µM (active).
As to `COc1ccc(S(=O)(=O)N(C)C[C@@H]2OCc3ccccc3-c3c(n(C)c4ccccc34)C(=O)N([C@H](C)CO)C[C@@H]2C)cc1`, the AC50 in assay [18] is 6.36 µM (active).
With `CCCN1CCCC[C@H]1C(=O)Nc1c(C)cccc1C` [ROPIVACAINE HYDROCHLORIDE], the IC50 in assay [19] is > 33.3 µM (inactive). In addition, in the assay on HeLa, the AC50 is > 52 µM (inactive).
